{
  "source": "patent US20240158426A1",
  "about": "“TRANSITION METAL COMPLEX CONTAINING TETRADENTATE NITROGEN DONOR LIGAND AND ELECTROCHEMICAL BIOSENSOR COMPRISING SAME” (I-sens, Inc., priority 2020, published 2024)",
  "assay": "Cyclic voltammetry (CV) of TPMA-based osmium complexes",
  "conditions": "Cl^− counter ion form; Ag/AgCl reference electrode; scanning rate 10 mV/s",
  "method": "In order to analyze electrochemical properties of the synthesized TPMA-based osmium complexes, cyclic voltammetry (CV) was used. A well-washed carbon glass electrode with a diameter of 3 mm was used as a working electrode, and an Ag/AgCl electrode was used as a reference electrode, and a Pt electrode was used as a counter electrode to measure it at a scanning rate of 10 mV/s. […] In order to find out only the position of the redox peak, the complex in a Cl^− counter ion form was measured in condition that the concentration of each substance was not constant, by measuring the Cl^− substance in a solution state during the anion exchange process. […] The change in the oxidation/reduction potential according to the type of the substituent and coordinated ligand was analyzed centering on the present complex.",
  "data": [
    {"substance": "[Os(TPMA)Cl2]^+(PF6^−) [Complex 18]", "values": [
      {"measurement": "oxidation/reduction potential E1/2", "result": "−0.339", "unit": "V"}
    ]}
  ]
}
